One assay relates to N. gonorrhoeae L 1599. Briefly: in vitro antibacterial activity (standard dilution test). The class given is cell-based. The settings on record: Neisseria gonorrhoeae, L1599; N. gonorrhoeae L 1599, clinically isolated, penicillinase producing; GC agar base + 1% Iso-Vitalex, CO2 enriched, 18-24 h, 37° C. The protocol:
(§1) Iso-Sensitest broth (Oxoid) and Todd-Hewitt broth (Difco) are used for staphylococci and streptococci, respectively, Neisseriae strains are cultured on GC agar base (Difco)+1% Iso-Vitalex (BBL) and Hemophylus is cultured on GC agar base (Difco)+1% Iso-Vitalex (BBL)+1% hemoglobin (Difco). Broth cultures are diluted so that the final inoculum is about 10^4 -10^5 colony forming units/ml (CFU/ml). […] Neisseriae strains are incubated in a CO2 enriched atmosphere.

For the next assay, the system named is N. gonorrhoeae L 1596. The description is as above. Type of assay: cell-based. The settings on record: Neisseria gonorrhoeae, L1596; N. gonorrhoeae L 1596, clinically isolated, resistant to spectinomycin; GC agar base + 1% Iso-Vitalex, CO2 enriched, 18-24 h, 37° C. The protocol:
as §1

The results in this text go back to US4607012A, “Antibiotic SB 22484” (Gruppo Lepetit S.p.A., priority 1983, dated 1986).

Turning to `CC1(C)S[C@@H]2[C@H](NC(=O)Cc3ccccc3)C(=O)N2[C@H]1C(=O)O` [penicillin], the MIC with N. gonorrhoeae L 1599 was more than 50 µg/mL.
As for `CN[C@@H]1[C@H](O)[C@H](NC)[C@H]2O[C@@]3(O)C(=O)C[C@@H](C)O[C@H]3O[C@@H]2[C@H]1O` [spectinomycin], the MIC in the assay with N. gonorrhoeae L 1596 is more than 12 µg/mL.
